# Laboratory results reported in US20230321125A1, “COMPOSITIONS OF GINSENOSIDE RG3 AND GINSENOSIDE RG5 AND THEIR PHARMACEUTICAL USES INCLUDING ANTI-TUMOR EFFECTS” (DALIAN FUSHENG NATURAL MEDICINE DEVELOPMENT CO., LTD., priority 2020, published 2023).
# System: QBC939/ADM
# Assay: CCK-8 assay of cytotoxicity of targeted drugs with or without ginsenoside composition in drug-resistant cells
# Assay type: cell-based, Human
# Conditions: 24 h
# Description: 1. Materials and Methods Human cholangiocarcinoma cell line QBC939, purchased from Shanghai Honshun Biological Technology Co., Ltd.
# The human cholangiocarcinoma cell line QBC939 was thawed and inoculated into T25 cell culture flasks filled with cell culture medium, and QBC939/ADM was constructed by continuously increasing the contact concentration of ADM.
# The cells were divided into a blank zeroed control group, a normal control group and 9 experimental groups, each containing 100 μL of 80 μg/mL ginsenoside composition for cell culturing.
# The control group (chemotherapeutic drug group): 100 μL of culture medium containing chemotherapeutic drugs was added to each well. The chemotherapeutic drugs included the targeted drugs afatinib (400 μg/mL), ceritinib (1000 μg/mL) and erlotinib (200 μg/mL). Six replicate wells were set up for each drug.
# The experimental group (chemotherapeutic drugs+traditional Chinese medicine): 100 μL of culture medium containing chemotherapeutic drugs+ginsenoside composition was added to each well, namely afatinib (400 μg/mL)+ginsenoside composition (80 μg/mL), ceritinib (1000 μg/mL)+ginsenoside composition (80 μg/mL), and erlotinib (200 μg/mL)+ginsenoside composition (80 μg/mL). Six replicate wells were set up for each drug.
# The cytotoxic effects of the chemotherapeutic drugs were detected 24 h later.
structure (smiles),measurement,setting,value
CN(C)C/C=C/C(=O)Nc1cc2c(Nc3ccc(F)c(Cl)c3)ncnc2cc1O[C@H]1CCOC1 [afatinib],"Absorbance value (OD, CCK-8), Afatinib",control group: afatinib 400 μg/mL alone,1.179 ± 0.147
Cc1cc(Nc2ncc(Cl)c(Nc3ccccc3S(=O)(=O)C(C)C)n2)c(OC(C)C)cc1C1CCNCC1 [ceritinib],"Absorbance value (OD, CCK-8), Ceritinib",control group: ceritinib 1000 μg/mL alone,1.304 ± 0.096
C#Cc1cccc(Nc2ncnc3cc(OCCOC)c(OCCOC)cc23)c1 [erlotinib],"Absorbance value (OD, CCK-8), Erlotinib",control group: erlotinib 200 μg/mL alone,1.294 ± 0.131
